This data set deals with human patients suffering from osteoarthritis. Put plainly: Clinical study in osteoarthritis patients: patient-recorded adverse side effects. Conditions: 4 weeks. The class given is in vivo. An excerpt: Four groups of patients were selected and each group was given one or other of the following medications over a four week period:
All patients were aged from 45-80 and had been suffering from chronic knee pain due to osteoarthritis for at least 6 months. Patients went through a washout period of their existing osteoarthritis treatments. […] At the beginning of the study, and also at conclusion of each subsequent week, patients were required to visit a physician and complete a WOMAC questionnaire and a Global Pain Rating Assessment.
In terms of adverse side effects patients were asked to keep a record of these, if any.

For the compound `CC(C)Cc1ccc(C(C)C(=O)O)cc1` (centres unmarked) [Ibuprofen, ibuprofen], the “adverse side effects recorded” value (Ibuprofen High group: 2 × 300 mg ibuprofen tablets four times daily, 2,400 mg per day, both related to gastric discomfort) is “two probable adverse effects” and the “adverse side effects recorded” value (Ibuprofen Low group: 2 × 150 mg ibuprofen tablets four times daily, 1,200 mg per day) is “no confirmed or probable adverse side effects”.
